Source: patent publication US20080051384A1, “ANTIVIRAL AGENTS” (Genelabs Technologies, Inc., priority 2006, published 2008)

Experiment: Replicon Assay (luciferase, ET cell line)
Format: cell-based, HCV
Settings: Hepatitis C virus; tested at 6.25 μM; inhibition of replication (luciferase activity) relative to no compound control
Experimental: A cell line, ET (Huh-lucubineo-ET) was used for screening of compounds for inhibiting HCV RNA dependent RNA polymerase. The ET cell line was stably transfected with RNA transcripts harboring a I389luc-ubi-neo/NS3-3′/ET; replicon with firefly luciferase-ubiquitin-neomycin phosphotransferase fusion protein and EMCV-IRES driven NS3-5B polyprotein containing the cell culture adaptive mutations (E1202G; T12801; K1846T) (Krieger at al, 2001 and unpublished). The ET cells were grown in DMEM, supplemented with 10% fetal calf serum, 2 mM Glutamine, Penicillin (100 IU/mL)/Streptomycin (100 μg/mL), 1× nonessential amino acids, and 250 μg/mL G418 (“Geneticin”). They are all available through Life Technologies (Bethesda, Md.). The cells were plated at 0.5-1.0×10^4 cells/well in the 96 well plates and incubated for 24 hrs before adding test compound. The compounds were added to the cells to achieve a final concentration of 0.1 nM to 50 μm and a final DMSO concentration of 0.5%. Luciferase activity was measured 48-72 hours later by adding a lysis buffer and the substrate (Catalog number Glo-lysis buffer E2661 and Bright-Glo luciferase system E2620 Promega, Madison, Wis.). Cells should not be too confluent during the assay. Percent inhibition of replication data was plotted relative to no compound control. Under the same condition, cytotoxicity of the compounds were determined using cell proliferation reagent, WST-1 (Roche, Germany). The compounds showing antiviral activities, but no significant cytotoxicities were chosen to determine EC50 and TC50, the effective concentration and toxic concentration at which 50% of the maximum inhibition is observed. For these determinations, a 10 point, 2-fold serial dilution for each compound was used, which spans a concentration range of 1000 fold. EC50 and similarly the TC50 values were calculated by fitting % inhibition at each concentration to the following equation: % inhibition=100%/[(EC50/[I])^b+1] where b is Hill's coefficient.

Row | Structure (SMILES) | inhibition at 6.25 µM [%]
1 | O=C(O)c1cc2c(s1)c(C1=CCCCC1)c(-c1ccc3nc(-c4ccccc4F)ccc3c1)n2CC(=O)N1CCOCC1 [compound 186, 6-Cyclohex-1-enyl-5-[2-(2-fluoro-phenyl)-quinolin-6-yl]-4-(2-morpholin-4-yl-2-oxo-ethyl)-4H-thieno[3,2-b]pyrrole-2-carboxylic acid] | 75
2 | Cc1nc(C)c(-c2ccc3cc(-c4c(C5=CCCCC5)c5sc(C(=O)O)cc5n4CC(=O)N4CCOCC4)ccc3n2)s1 [compound 187, 6-Cyclohex-1-enyl-5-[2-(2,4-dimethyl-thiazol-5-yl)-quinolin-6-yl]-4-(2-morpholin-4-yl-2-oxo-ethyl)-4H-thieno[3,2-b]pyrrole-2-carboxylic acid] | 63
3 | O=C(O)c1cc2c(s1)c(C1CCCCC1)c(-c1ccc3nc(-c4ccccc4F)ccc3c1)n2CC(=O)N1CCOCC1 [compound 188, 6-Cyclohexyl-5-[2-(2-fluoro-phenyl)-quinolin-6-yl]-4-(2-morpholin-4-yl-2-oxo-ethyl)-4H-thieno[3,2-b]pyrrole-2-carboxylic acid] | 99
4 | Cc1nc(C)c(-c2ccc3cc(-c4c(C5CCCCC5)c5sc(C(=O)O)cc5n4CC(=O)N4CCOCC4)ccc3n2)s1 [compound 189, 6-cyclohexyl-5-[2-(2,4-dimethyl-thiazol-5-yl)-quinolin-6-yl]-4-(2-morpholin-4-yl-2-oxo-ethyl)-4H-thieno[3,2-b]pyrrole-2-carboxylic acid] | 100
5 | Cc1nc(C)c(-c2ccc3cc(-c4c(C5CCCCC5)c5sc(C(=O)O)cc5n4CC(=O)N4CCSCC4)ccc3n2)s1 [compound 190, 6-Cyclohexyl-5-[2-(2,4-dimethyl-thiazol-5-yl)-quinolin-6-yl]-4-(2-oxo-2-thiomorpholin-4-yl-ethyl)-4H-thieno[3,2-b]pyrrole-2-carboxylic acid] | 98
6 | Cc1nc(C)c(-c2ccc3cc(-c4c(C5CCCCC5)c5sc(C(=O)O)cc5n4CC(=O)N4CCCCC4)ccc3n2)s1 [compound 191, 6-cyclohexyl-5-[2-(2,4-dimethyl-thiazol-5-yl)-quinolin-6-yl]-4-(2-oxo-2-piperidin-1-yl-ethyl)-4H-thieno[3,2-b]pyrrole-2-carboxylic acid] | 97
